This is an account of results in patent US20160046618A1, “Cyclopropyl Fused Thiazin-2-Amine Compounds as Beta-Secretase Inhibitors and Methods of Use” (AMGEN INC., priority 2014, published 2016).

Read-outs that look alike come from different tables or passages of the source.

For orientation: IC50 means the midpoint of a concentration-inhibition curve.

Assay [1] concerns Aβ 40 in rat CSF. Kind of assay: In vivo inhibition of beta-secretase: Aβ40 reduction in rat CSF. The note with it: after 4 h. The procedure, abridged: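 Male Sprague Dawley rats (200 g) dosed orally in 2% HPMC, 1% Tween80, pH 2.2, at 3, 10 or 30 mg/kg; CSF and brain taken 4 h later. Brain homogenate centrifuged at 355,000 g; Aβ40 measured by ECL sandwich ELISA (4G8 capture, Abeta40 C-terminal Fab detection), as % reduction versus vehicle controls.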

The target of assay [2] is human recombinant BACE1 (Homo sapiens (Human), UniProt P56817). The assay is described as follows: In vitro enzymatic BACE1 FRET assay. Particulars: read-out: IC50 IP (μM) BACE1 enzyme. In kind it is biochemical. In short, it runs like this:
(§1)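 Ni-NTA-purified recombinant enzyme incubated 1 h with 50 nM FRET peptide substrate (fluorophore and quencher flanking the BACE cleavage site). Reaction stopped with Tris buffer raising pH to neutrality; cleavage-released fluorescence read at ex 488/em 590 nm.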

The test system of assay [3] is Aβ 40 in rat brain. Kind of assay: In vivo inhibition of beta-secretase: Aβ40 reduction in rat brain. Particulars: after 4 h. In short, it runs like this: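 Rats were dosed by oral gavage at up to 100 mg/kg in 2% HPMC, 1% Tween80, pH 2.2, with vehicle-only controls. Supernatant Aβ40 was measured by ECL sandwich ELISA with biotinylated-4G8 capture and C-terminal Fab40 detection.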

Assay [4] addresses Recombinant Cat D (Homo sapiens (Human), UniProt P07339). Kind of assay: In vitro enzymatic Cathepsin D (Cat D) FRET assay. The note with it: read-out: IC50 IP (μM) CatD. In kind it is biochemical. The procedure, abridged: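 CHO-expressed enzyme; buffer 0.05 M citrate pH 3.5, 5 mM CHAPS, 10% DMSO final. Start with FRET substrate 20 nM, 1 h incubation, Tris stop (pH to neutral), fluorescence ex 500 nm/em 580 nm.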

The subject of assay [5] is Aβ40 in conditioned medium of cells stably expressing Amyloid Precursor Protein (APP). The assay is described as follows: In vitro BACE-1 cell-based assay (Aβ40 sandwich ELISA). The note with it: read-out: IC50 IP (μM) BACE1 cell. In short, it runs like this:
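APP-stable cells, pre-cultured 24 h at 37° C in DMEM/10% FBS, were treated 24 h with compound in a 10-point series starting at 100 μM or 10 μM (0.1% DMSO final). Secreted Aβ40 in conditioned medium was measured by pAb40/biotin-6E10 sandwich ELISA with Europium time-resolved fluorescence; IC50 from percent inhibition versus concentration.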
A general note: In an ELISA, binding on a coated surface is turned into a signal by an enzyme label.

For assay [6], the target named is human recombinant BACE2 (Homo sapiens (Human), UniProt Q9Y5Z0). Kind of assay: In vitro enzymatic BACE2 FRET assay. Particulars: read-out: IC50 IP (μM) BACE2 enzyme. Format: biochemical. The procedure, abridged: as §1
Chain of human recombinant BACE2 (Q9Y5Z0 63-518): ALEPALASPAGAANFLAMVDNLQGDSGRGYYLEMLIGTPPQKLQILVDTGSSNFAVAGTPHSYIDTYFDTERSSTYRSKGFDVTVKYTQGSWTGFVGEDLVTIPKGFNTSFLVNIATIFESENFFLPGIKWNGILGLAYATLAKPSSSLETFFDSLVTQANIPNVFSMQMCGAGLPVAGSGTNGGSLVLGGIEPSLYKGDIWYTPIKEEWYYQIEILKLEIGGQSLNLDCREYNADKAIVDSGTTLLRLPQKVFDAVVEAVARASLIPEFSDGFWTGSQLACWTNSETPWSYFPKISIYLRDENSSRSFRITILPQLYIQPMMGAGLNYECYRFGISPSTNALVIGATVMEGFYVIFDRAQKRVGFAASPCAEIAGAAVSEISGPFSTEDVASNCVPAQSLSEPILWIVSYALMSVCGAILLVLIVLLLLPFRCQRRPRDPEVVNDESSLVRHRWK

Chain of human recombinant BACE1 (P56817 46-501): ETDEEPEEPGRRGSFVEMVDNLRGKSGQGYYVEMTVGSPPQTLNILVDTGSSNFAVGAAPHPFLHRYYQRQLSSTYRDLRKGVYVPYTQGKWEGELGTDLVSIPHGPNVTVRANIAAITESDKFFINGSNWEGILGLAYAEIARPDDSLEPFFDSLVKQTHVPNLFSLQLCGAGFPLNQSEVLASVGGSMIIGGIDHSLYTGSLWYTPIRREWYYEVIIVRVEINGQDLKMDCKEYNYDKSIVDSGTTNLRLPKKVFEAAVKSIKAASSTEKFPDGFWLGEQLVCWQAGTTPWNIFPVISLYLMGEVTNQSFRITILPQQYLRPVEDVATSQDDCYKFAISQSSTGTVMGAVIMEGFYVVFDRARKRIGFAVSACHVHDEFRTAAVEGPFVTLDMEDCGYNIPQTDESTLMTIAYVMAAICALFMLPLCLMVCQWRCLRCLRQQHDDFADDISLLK
Chain of Recombinant Cat D (P07339 65-412): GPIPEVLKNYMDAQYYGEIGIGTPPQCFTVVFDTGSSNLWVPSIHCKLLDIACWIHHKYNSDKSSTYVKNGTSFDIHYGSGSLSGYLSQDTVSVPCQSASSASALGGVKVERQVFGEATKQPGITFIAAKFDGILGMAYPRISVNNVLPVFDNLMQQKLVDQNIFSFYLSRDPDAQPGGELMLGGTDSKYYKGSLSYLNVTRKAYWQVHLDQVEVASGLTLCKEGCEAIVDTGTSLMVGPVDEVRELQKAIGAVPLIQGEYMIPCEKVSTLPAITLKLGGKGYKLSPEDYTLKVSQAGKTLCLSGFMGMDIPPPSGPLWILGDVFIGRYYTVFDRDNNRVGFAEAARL

`C[C@]1(c2cc(Nc3nccc4cc(C#N)cnc34)cc(F)c2F)N=C(N)S[C@@]2(CO)C[C@H]21` [Example 54, 8-((3-((1S,5S,6S)-3-amino-1-(hydroxymethyl)-5-methyl-2-thia-4-azabicyclo[4.1.0]hept-3-en-5-yl)-4,5-difluorophenyl)amino)-1,7-naphthyridine-3-carbonitrile]: the “% Aβ 40 reduction in rat CSF at 10 mpk” value in assay [1] is 18%. Besides, the IC50 was 0.00139 µM in assay [2] (BACE1 FRET enzyme assay), over 44.4 µM in assay [4] (Cathepsin D FRET enzyme assay), 0.00196 µM in assay [5] (BACE1 cell-based assay) and under 0.00203 µM in assay [6] (BACE2 FRET enzyme assay). The “% Aβ 40 reduction in rat brain at 10 mpk” value in assay [3] is given as 19%.
For the compound `C#CCOc1cnc2c(Nc3cc(F)c(F)c([C@@]4(C)N=C(N)S[C@@]5(C(F)F)C[C@@H]45)c3)nccc2n1` [Example 805, N-(3-((1S,5S,6S)-3-amino-1-(difluoromethyl)-5-methyl-2-thia-4-azabicyclo[4.1.0]hept-3-en-5-yl)-4,5-difluorophenyl)-2-(2-propyn-1-yloxy)pyrido[3,4-b]pyrazin-5-amine], the “% Aβ 40 reduction in rat CSF at 10 mpk” value in assay [1] is listed as 59%. The IC50 was determined as 0.000222 µM in assay [2], 27 µM in assay [4], 0.00497 µM in assay [5] and 0.0189 µM in assay [6]. Also, the “% Aβ 40 reduction in rat brain at 10 mpk” value in assay [3] came out at 53%.
Take `Cc1cc(OCc2ncco2)cnc1C(=O)Nc1cc(F)c(F)c([C@@]2(C)N=C(N)S[C@@]3(CF)C[C@H]32)c1` [Example 645, N-(3-((1S,5S,6S)-3-amino-1-(fluoromethyl)-5-methyl-2-thia-4-azabicyclo[4.1.0]hept-3-en-5-yl)-4,5-difluorophenyl)-3-methyl-5-(1,3-oxazol-2-ylmethoxy)-2-pyridinecarboxamide]: the “% Aβ 40 reduction in rat CSF at 10 mpk” value in assay [1] is on record as 53%. For the same compound, the IC50 in assay [2] was found to be 0.00337 µM; in assay [4] it was 477 µM; in assay [5] it was 0.0246 µM; in assay [6], 0.143 µM. Also, the “% Aβ 40 reduction in rat brain at 10 mpk” value in assay [3] was determined as 34%.
For the compound `COC[C@]12C[C@H]1[C@@](C)(c1cc(Nc3ncnc4cc(C#N)cnc34)cc(F)c1F)N=C(N)S2` [Example 46, 4-((3-((1S,5S,6S)-3-amino-1-(methoxymethyl)-5-methyl-2-thia-4-azabicyclo[4.1.0]hept-3-en-5-yl)-4,5-difluorophenyl)amino)pyrido[3,2-d]pyrimidine-7-carbonitrile], the “% Aβ 40 reduction in rat CSF at 10 mpk” value in assay [1] stood at 73%. Also, the IC50 was found to be 0.00631 µM in assay [2] (BACE1 FRET enzyme assay), 252 µM in assay [4] (Cathepsin D FRET enzyme assay), 0.00352 µM in assay [5] (BACE1 cell-based assay) and 0.0301 µM in assay [6] (BACE2 FRET enzyme assay). Further, the “% Aβ 40 reduction in rat brain at 10 mpk” value in assay [3] is listed as 67%.
For the compound `C#C[C@H](C)Oc1cnc(C(=O)Nc2ccc(F)c([C@@]3(C)N=C(N)S[C@@]4(COC)C[C@H]43)c2)cn1` [Example 965, N-(3-((1S,5S,6S)-3-amino-1-(methoxymethyl)-5-methyl-2-thia-4-azabicyclo[4.1.0]hept-3-en-5-yl)-4-fluorophenyl)-5-(((1S)-1-methyl-2-propyn-1-yl)oxy)-2-pyrazinecarboxamide], the “% Aβ 40 reduction in rat CSF at 10 mpk” value in assay [1] is 33%. The IC50 in assay [2] was 0.000618 µM; in assay [4], over 400 µM; in assay [5] it was 0.00287 µM; in assay [6] it was 0.0638 µM. The “% Aβ 40 reduction in rat brain at 10 mpk” value in assay [3] was 20%.
With `N#Cc1cnc2c(Nc3ccc(F)c([C@@]4(CF)N=C(N)S[C@H]5C[C@H]54)c3)ncnc2c1` [Example 51, 4-((3-((1S,5S,6S)-3-amino-5-(fluoromethyl)-2-thia-4-azabicyclo[4.1.0]hept-3-en-5-yl)-4-fluorophenyl)amino)pyrido[3,2-d]pyrimidine-7-carbonitrile], the “% Aβ 40 reduction in rat CSF (3 mpk)” value in assay [1] (3 mpk) is 23 (3 mpk) %. The IC50 in assay [2] (BACE1 FRET enzyme assay) came to 0.033 µM; in assay [4] (Cathepsin D FRET enzyme assay), 1350 µM; in assay [5] (BACE1 cell-based assay), 0.00344 µM; in assay [6] (BACE2 FRET enzyme assay) it was 0.0983 µM. For the same compound, the “% Aβ 40 reduction in rat brain (3 mpk)” value in assay [3] (3 mpk) was 17 (3 mpk) %.
With `Cc1nc(COc2cnc3c(Nc4ccc(F)c([C@@]5(C)N=C(N)S[C@@]6(CF)C[C@H]65)c4)nccc3n2)no1` [Example 828, N-(3-((1S,5S,6S)-3-amino-1-(fluoromethyl)-5-methyl-2-thia-4-azabicyclo[4.1.0]hept-3-en-5-yl)-4-fluorophenyl)-2-((5-methyl-1,2,4-oxadiazol-3-yl)methoxy)pyrido[3,4-b]pyrazin-5-amine], in assay [1], the “% Aβ 40 reduction in rat CSF at 10 mpk” value is 24%. The IC50 in assay [2] is 0.00496 µM; in assay [4], 995 µM; in assay [5], 0.00446 µM; in assay [6] it was 0.207 µM. Moreover, in assay [3], the “% Aβ 40 reduction in rat brain at 10 mpk” value came to 10%.
Turning to `NC1=N[C@](CF)(c2cc(NC(=O)c3ccc(Cl)cn3)cc(F)c2F)[C@@H]2C[C@@H]2S1` [Example 5, N-(3-((1S,5S,6S)-3-amino-5-(fluoromethyl)-2-thia-4-azabicyclo[4.1.0]hept-3-en-5-yl)-4,5-difluorophenyl)-5-chloro-2-pyridinecarboxamide], the “% Aβ 40 reduction in rat CSF at 10 mpk” value in assay [1] is on record as 43%. Also, the IC50 in assay [2] (BACE1 FRET enzyme assay) was found to be 0.00855 µM; in assay [4] (Cathepsin D FRET enzyme assay) it was 1420 µM; in assay [5] (BACE1 cell-based assay), 0.0326 µM; in assay [6] (BACE2 FRET enzyme assay) it was 0.00154 µM. Also, the “% Aβ 40 reduction in rat brain at 10 mpk” value in assay [3] was found to be 19%.
Consider `C#C[C@H](C)Oc1cnc2c(Nc3cc(F)c(F)c([C@@]4(C)N=C(N)S[C@@]5(C#N)C[C@H]54)c3)nccc2n1` [Example 931, (1S,5S,6S)-3-amino-5-(2,3-difluoro-5-((2-(((1S)-1-methyl-2-propyn-1-yl)oxy)pyrido[3,4-b]pyrazin-5-yl)amino)phenyl)-5-methyl-2-thia-4-azabicyclo[4.1.0]hept-3-ene-1-carbonitrile], for which the “% Aβ 40 reduction in rat CSF at 10 mpk” value in assay [1] stood at 8%. The IC50 in assay [2] stood at 0.000902 µM; in assay [4] it was 633 µM; in assay [5] it was 0.0386 µM; in assay [6] it was 0.0551 µM. For the same compound, the “% Aβ 40 reduction in rat brain at 10 mpk” value in assay [3] is reported as 3%.
With `C[C@]1(c2cc(NC(=O)c3cnc(OCC(F)(F)F)cn3)cc(F)c2F)N=C(N)S[C@@]2(CF)C[C@H]21` [Example 814, N-(3-((1S,5S,6S)-3-amino-1-(fluoromethyl)-5-methyl-2-thia-4-azabicyclo[4.1.0]hept-3-en-5-yl)-4,5-difluorophenyl)-5-(2,2,2-trifluoroethoxy)-2-pyrazinecarboxamide], the “% Aβ 40 reduction in rat CSF at 10 mpk” value in assay [1] was found to be 76%. The IC50 in assay [2] was determined as 0.000829 µM; in assay [4] it was 595 µM; in assay [5], 0.00608 µM; in assay [6] it was 0.0601 µM. In addition, the “% Aβ 40 reduction in rat brain at 10 mpk” value in assay [3] was 68%.
`COC[C@]12C[C@H]1[C@@](C)(c1cc(Nc3nccc4cc(C#N)cnc34)cc(F)c1F)N=C(N)S2` [Example 33, 8-((3-((1S,5S,6S)-3-amino-1-(methoxymethyl)-5-methyl-2-thia-4-azabicyclo[4.1.0]hept-3-en-5-yl)-4,5-difluorophenyl)amino)-1,7-naphthyridine-3-carbonitrile]: the “% Aβ 40 reduction in rat CSF at 10 mpk” value in assay [1] turned out to be 65%. Further, the IC50 in assay [2] (BACE1 FRET enzyme assay) is 0.00203 µM; in assay [4] (Cathepsin D FRET enzyme assay), over 400 µM; in assay [5] (BACE1 cell-based assay), 0.00383 µM; in assay [6] (BACE2 FRET enzyme assay), 0.00169 µM. Also, the “% Aβ 40 reduction in rat brain at 10 mpk” value in assay [3] turned out to be 53%.
Regarding `COC[C@]12C[C@H]1[C@@](C)(c1cc(NC(=O)c3ccc(OCC(F)(F)F)cn3)ccc1F)N=C(N)S2` [Example 698, N-(3-((1S,5S,6S)-3-amino-1-(methoxymethyl)-5-methyl-2-thia-4-azabicyclo[4.1.0]hept-3-en-5-yl)-4-fluorophenyl)-5-(2,2,2-trifluoroethoxy)-2-pyridinecarboxamide], the “% Aβ 40 reduction in rat CSF at 10 mpk” value in assay [1] was found to be 15%. For the same compound, the IC50 was 0.0086 µM in assay [2], over 400 µM in assay [4], 0.0116 µM in assay [5] and 0.316 µM in assay [6]. Further, the “% Aβ 40 reduction in rat brain at 10 mpk” value in assay [3] was −7%.
As to `NC1=N[C@](CF)(c2cc(Nc3ncnc4cc(Cl)cnc34)ccc2F)[C@@H]2C[C@]2(CO)S1` [Example 49, ((1S,5S,6S)-3-amino-5-(5-((7-chloropyrido[3,2-d]pyrimidin-4-yl)amino)-2-fluorophenyl)-5-(fluoromethyl)-2-thia-4-azabicyclo[4.1.0]hept-3-en-1-yl)methanol], the “% Aβ 40 reduction in rat CSF at 10 mpk” value in assay [1] is 24%. The IC50 in assay [2] (BACE1 FRET enzyme assay) was 0.00631 µM; in assay [4] (Cathepsin D FRET enzyme assay), 1760 µM; in assay [5] (BACE1 cell-based assay), 0.0084 µM; in assay [6] (BACE2 FRET enzyme assay) it was 0.00749 µM. Besides, in assay [3], the “% Aβ 40 reduction in rat brain at 10 mpk” value is 14%.
